Results published in PubChem BioAssay (NCI).
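Each compound was tested at five concentrations against cells in 96-well plates for 48 hours. GI50: concentration for 50% inhibition of growth. Definition used: TGI = concentration required for complete inhibition of growth.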

Legend:
Test in all cases: growth of human tumour cells (NCI), 48 h
SK-MEL-28 melanoma = test system: SK-MEL-28 melanoma
OVCAR-3 ovarian = test system: OVCAR-3 ovarian
SNB-75 CNS = test system: SNB-75 CNS
UO-31 renal = test system: UO-31 renal
PC-3 prostate = test system: PC-3 prostate
SF-268 CNS = test system: SF-268 CNS
ACHN renal = test system: ACHN renal
OVCAR-5 ovarian = test system: OVCAR-5 ovarian
NCI/ADR-RES ovarian = test system: NCI/ADR-RES ovarian
MDA-MB-231 breast = test system: MDA-MB-231 breast
LOX IMVI melanoma = test system: LOX IMVI melanoma
NCI-H226 lung = test system: NCI-H226 lung
COLO 205 colon = test system: COLO 205 colon
HCT-15 colon = test system: HCT-15 colon
SK-MEL-2 melanoma = test system: SK-MEL-2 melanoma
HCT-116 colon = test system: HCT-116 colon
MOLT-4 leukemia = test system: MOLT-4 leukemia
786-0 renal = test system: 786-0 renal
IGROV1 ovarian = test system: IGROV1 ovarian
HOP-92 NSCLC = test system: HOP-92 NSCLC
NCI-H460 lung = test system: NCI-H460 lung
HS 578T breast = test system: HS 578T breast
SK-MEL-5 melanoma = test system: SK-MEL-5 melanoma
MDA-MB-435 = test system: MDA-MB-435
SN12C renal = test system: SN12C renal
SK-OV-3 ovarian = test system: SK-OV-3 ovarian
HL-60(TB) leukemia = test system: HL-60(TB) leukemia
SW-620 colon = test system: SW-620 colon
MCF7 breast = test system: MCF7 breast
UACC-62 melanoma = test system: UACC-62 melanoma
OVCAR-8 ovarian = test system: OVCAR-8 ovarian
SF-539 CNS = test system: SF-539 CNS
TK-10 renal = test system: TK-10 renal
RPMI-8226 leukemia = test system: RPMI-8226 leukemia
SR leukemia = test system: SR leukemia
A549 NSCLC = test system: A549 NSCLC
MALME-3M melanoma = test system: MALME-3M melanoma
DU-145 prostate = test system: DU-145 prostate
OVCAR-4 ovarian = test system: OVCAR-4 ovarian
K-562 leukemia = test system: K-562 leukemia
SF-295 CNS = test system: SF-295 CNS
KM12 colon = test system: KM12 colon
A498 renal = test system: A498 renal
CAKI-1 renal = test system: CAKI-1 renal
HCC-2998 colon = test system: HCC-2998 colon
RXF 393 renal = test system: RXF 393 renal
HT29 colon = test system: HT29 colon
HOP-62 NSCLC = test system: HOP-62 NSCLC
M14 melanoma = test system: M14 melanoma
U251 CNS = test system: U251 CNS
NCI-H522 lung = test system: NCI-H522 lung
CCRF-CEM leukemia = test system: CCRF-CEM leukemia
BT-549 breast = test system: BT-549 breast
T-47D breast = test system: T-47D breast
SNB-19 CNS = test system: SNB-19 CNS
UACC-257 melanoma = test system: UACC-257 melanoma
NCI-H23 lung = test system: NCI-H23 lung

O=C1Nc2ccc(Cl)cc2/C1=C\c1c(-c2ccc(Cl)cc2)nc2sc(C3CC3)nn12
GI50 (SK-MEL-28 melanoma): 3.49 µM | TGI (SK-MEL-28 melanoma): 13.7 µM | GI50 (OVCAR-3 ovarian): 4.16 µM | TGI (OVCAR-3 ovarian): 15.2 µM | GI50 (SNB-75 CNS): 1.38 µM | TGI (SNB-75 CNS): 3.19 µM | GI50 (UO-31 renal): 2.63 µM | TGI (UO-31 renal): 14.8 µM | GI50 (PC-3 prostate): 5 µM | TGI (PC-3 prostate): 19.6 µM | GI50 (SF-268 CNS): 3.21 µM | TGI (SF-268 CNS): 12.9 µM | GI50 (ACHN renal): 2.77 µM | TGI (ACHN renal): 12.3 µM | GI50 (OVCAR-5 ovarian): 11.7 µM | TGI (OVCAR-5 ovarian): 42.6 µM | GI50 (NCI/ADR-RES ovarian): 2.85 µM | TGI (NCI/ADR-RES ovarian): 10.2 µM | GI50 (MDA-MB-231 breast): 2.67 µM | TGI (MDA-MB-231 breast): 13 µM | GI50 (LOX IMVI melanoma): 3.15 µM | TGI (LOX IMVI melanoma): 10.7 µM | GI50 (NCI-H226 lung): 1.7 µM | TGI (NCI-H226 lung): 4.68 µM | GI50 (COLO 205 colon): 5.77 µM | TGI (COLO 205 colon): 23.9 µM | GI50 (HCT-15 colon): 4.36 µM | TGI (HCT-15 colon): 17.6 µM | GI50 (SK-MEL-2 melanoma): 4.9 µM | TGI (SK-MEL-2 melanoma): 19.8 µM | GI50 (HCT-116 colon): 3 µM | TGI (HCT-116 colon): 11.4 µM | GI50 (MOLT-4 leukemia): 44.9 µM | TGI (MOLT-4 leukemia): > 100 µM | GI50 (786-0 renal): 4.68 µM | TGI (786-0 renal): 18.8 µM | GI50 (IGROV1 ovarian): 4.12 µM | TGI (IGROV1 ovarian): 15.8 µM | GI50 (HOP-92 NSCLC): 2.01 µM | TGI (HOP-92 NSCLC): 5.89 µM | GI50 (NCI-H460 lung): 3.89 µM | TGI (NCI-H460 lung): 14.1 µM | GI50 (HS 578T breast): 2.31 µM | TGI (HS 578T breast): 6.85 µM | GI50 (SK-MEL-5 melanoma): 3.2 µM | TGI (SK-MEL-5 melanoma): 13 µM | GI50 (MDA-MB-435): 9.36 µM | TGI (MDA-MB-435): 28.9 µM | GI50 (SN12C renal): 3.54 µM | TGI (SN12C renal): 14.2 µM | GI50 (SK-OV-3 ovarian): 2.51 µM | TGI (SK-OV-3 ovarian): 6.64 µM | GI50 (HL-60(TB) leukemia): 40.8 µM | TGI (HL-60(TB) leukemia): > 100 µM | GI50 (SW-620 colon): 7.65 µM | TGI (SW-620 colon): 55 µM | GI50 (MCF7 breast): 4.1 µM | TGI (MCF7 breast): 16.6 µM | GI50 (UACC-62 melanoma): 3.06 µM | TGI (UACC-62 melanoma): 14.5 µM | GI50 (OVCAR-8 ovarian): 3.12 µM | TGI (OVCAR-8 ovarian): 11.5 µM | GI50 (SF-539 CNS): 1.88 µM | TGI (SF-539 CNS): 3.78 µM | GI50 (TK-10 renal): 3.1 µM | TGI (TK-10 renal): 7.97 µM | GI50 (RPMI-8226 leukemia): 18.1 µM | TGI (RPMI-8226 leukemia): > 100 µM | GI50 (SR leukemia): 12.6 µM | TGI (SR leukemia): 75.8 µM | GI50 (A549 NSCLC): 3.58 µM | TGI (A549 NSCLC): 13.9 µM | GI50 (MALME-3M melanoma): 2.9 µM | TGI (MALME-3M melanoma): 8.79 µM | GI50 (DU-145 prostate): 5.73 µM | TGI (DU-145 prostate): 17.6 µM | GI50 (OVCAR-4 ovarian): 1.96 µM | TGI (OVCAR-4 ovarian): 5.16 µM | GI50 (K-562 leukemia): 7.37 µM | TGI (K-562 leukemia): 24.7 µM | GI50 (SF-295 CNS): 2.23 µM | TGI (SF-295 CNS): 6.89 µM | GI50 (KM12 colon): 15.8 µM | TGI (KM12 colon): > 100 µM | GI50 (A498 renal): 1.05 µM | TGI (A498 renal): 6.42 µM | GI50 (CAKI-1 renal): 1.43 µM | TGI (CAKI-1 renal): 11.1 µM | GI50 (HCC-2998 colon): 6.94 µM | TGI (HCC-2998 colon): 22.3 µM | GI50 (RXF 393 renal): 1.91 µM | TGI (RXF 393 renal): 5.09 µM | GI50 (HT29 colon): 5.61 µM | TGI (HT29 colon): 17.4 µM | GI50 (HOP-62 NSCLC): 1.75 µM | TGI (HOP-62 NSCLC): 4.21 µM | GI50 (M14 melanoma): 5.77 µM | TGI (M14 melanoma): 21.8 µM | GI50 (U251 CNS): 3.29 µM | TGI (U251 CNS): 13.1 µM | GI50 (NCI-H522 lung): 4.5 µM | TGI (NCI-H522 lung): 26.3 µM | GI50 (CCRF-CEM leukemia): 19.8 µM | TGI (CCRF-CEM leukemia): > 100 µM | GI50 (BT-549 breast): 2.52 µM | TGI (BT-549 breast): 9.27 µM | GI50 (T-47D breast): 2.41 µM | TGI (T-47D breast): 22 µM | GI50 (SNB-19 CNS): 3.59 µM | TGI (SNB-19 CNS): 16.7 µM | GI50 (UACC-257 melanoma): 3.36 µM | TGI (UACC-257 melanoma): 14.4 µM | GI50 (NCI-H23 lung): 4.39 µM | TGI (NCI-H23 lung): 17.6 µM
